This note sets out measurements from patent US11925690B2, “Bifunctional molecules for targeting Rpn11” (AMPHISTA THERAPEUTICS LTD, priority 2018, dated 2024).

Common to all, as to type: cell-based
One test concerns the target T1, Brd4 (Homo sapiens, UniProt O60885).
T1 construct: immunoblot analysis of Brd4 following 4 h treatment of HEK293 cells; endogenous in cells; host or cells: HEK293 (CRL-1573)
As to the kind of experiment: Immunoblot analysis of Brd4 in HEK293 cells (prodrug activity, negative SAR). As to conditions: HEK293, 1 μM, 4 h, n=3. The procedure:
Immunoblotting. Proteins were separated by SDS-PAGE on NuPage 4-12% Bis-Tris gels, followed by transfer to Amersham Protran 0.45 NC nitrocellulose membrane (GE Healthcare) using wet transfer. Membranes were blocked using 5% w/v milk in Tris-buffered saline (TBS) with 0.1% Tween-20. Blots were probed (overnight at 4 °C) using anti-Brd2 (Abcam ab139690, 1:2,000 dilution), anti-Brd3 (Abcam ab50818, 1:500 dilution), and anti-Brd4 (Abcam ab128874, 1:1,000 dilution) primary antibodies, as appropriate. The next day, blots were washed with TBST and incubated (1 h at Room temperature) with anti-Tubulin hFAB-rhodamine (BioRad, 12004166) primary antibody, and either anti-rabbit IRDye 800CW (Licor 1:1,000 dilution) or anti-mouse IRDye 800CW (Licor 1:1,000 dilution) secondary antibody. Blots were developed using a Bio-Rad ChemiDoc MP Imaging System, and band quantification was performed using Image Studio software (LiCor). Band intensities were normalized to the tubulin loading control and reported as % of the average 0.1% DMSO vehicle intensity. Degradation data was plotted and analysed using Prism (Graphpad, version 8). […]
HEK293 (1×10^6) cells incubated with DMSO, 1 μM 11JQ15 or 1 μM 11JQ17 for 4 h with a final DMSO concentration of 0.1% v/v. […] Degradation data was plotted and analysed using Prism (Graphpad, version 8), where bars are mean±SEM of three independent experiments.
A general note: Immunoblotting shows a protein as a band on a membrane.

A further test concerns HEK293 cells. As to the kind of experiment: Unbiased whole proteome analysis by TMT-labelling MS. As to conditions: HEK293, 1 μM, 4 h, n=3. The procedure:
HEK293 (2.2×10 6) cells were seeded in 10 cm plates (10 mL medium) overnight before treatment with 1 μM compound for a final DMSO concentration of 0.1% v/v. After 4 h incubation time, cells were washed with 2× with DPBS (Gibco) and lysed using 500 μL lysis buffer (100 mM Tris, 4% (w/v) SDS, pH 8.0) supplemented with cOmplete Mini EDTA-free protease inhibitor cocktail (Roche) and benzonase. Lysates were briefly sonicated (2×10 s), clarified by centrifugation (20000 g, 10 min, 4° C.) and the total protein content of the supernatant was quantified using a BCA assay (Thermo Fisher Scientific).
Sample processing, digestion, desalting, labelling, and fractionation were performed at Fingerprint Proteomics (University of Dundee) as described previously [Gadd et al. 10.1038/nchembio.2329]. FIG. 7 depicts fold change of abundance of 7882 proteins comparing 11JQ15 to DMSO treatment (left) and comparing 1 μM 11JQ17 to DMSO treatment (right), as well as their respective p-values (t-test; n=3).

The target in another test is T2, Brd4 (S) (Homo sapiens, UniProt O60885).
T2 construct: endogenous in cells; host or cells: HEK293 (CRL-1573), HeLa (CCL-2)
Description: Concentration-dependent BET degradation, immunoblot. As to conditions: 4 h, 1 nM-10 μM. The procedure: (§1) Immunoblotting. Proteins were separated by SDS-PAGE on NuPage 4-12% Bis-Tris gels, followed by transfer to Amersham Protran 0.45 NC nitrocellulose membrane (GE Healthcare) using wet transfer. Membranes were blocked using 5% w/v milk in Tris-buffered saline (TBS) with 0.1% Tween-20. Blots were probed (overnight at 4 °C) using anti-Brd2 (Abcam ab139690, 1:2,000 dilution), anti-Brd3 (Abcam ab50818, 1:500 dilution), and anti-Brd4 (Abcam ab128874, 1:1,000 dilution) primary antibodies, as appropriate. The next day, blots were washed with TBST and incubated (1 h at Room temperature) with anti-Tubulin hFAB-rhodamine (BioRad, 12004166) primary antibody, and either anti-rabbit IRDye 800CW (Licor 1:1,000 dilution) or anti-mouse IRDye 800CW (Licor 1:1,000 dilution) secondary antibody. Blots were developed using a Bio-Rad ChemiDoc MP Imaging System, and band quantification was performed using Image Studio software (LiCor). Band intensities were normalized to the tubulin loading control and reported as % of the average 0.1% DMSO vehicle intensity. Degradation data was plotted and analysed using Prism (Graphpad, version 8).
(§2) HeLa (5×10^5) and HEK293 (1×10^6) cells were seeded in standard 6-well plates (2 mL medium) overnight before treatment with compounds at the desired concentration (1 nM-10 μM), with a final DMSO concentration of 0.1% v/v. After 4 h treatment time, cells were washed with DPBS (Gibco) and lysed using 85 μL RIPA buffer (Sigma-Aldrich) supplemented with cOmplete Mini EDTA-free protease inhibitor cocktail (Roche) and benzonase. Lysates were clarified by centrifugation (20000 g, 10 min, 4° C.) and the total protein content of the supernatant was quantified using a Bradford colorimetric assay. Samples were prepared using equal amounts of total protein and LDS sample buffer (Invitrogen). Band intensities were normalized to the tubulin loading control and reported as % of the average 0.1% DMSO vehicle intensity. Degradation data was plotted and analysed using Prism (Graphpad, version 8).
(§3) MZ1 and 11JQ17 were used at 1 μM for positive and negative controls, respectively. […] For the table, Dmax: +(Dmax≤25%); ++(26%≤Dmax≤50%); +++(51%≤Dmax≤70%); ++++(71%≤DC50: A (DC50≤50 nM); B (51 nM≤DC50≤500 nM); C (501 nM≤DC50).

The target of the next test is T3, Brd4 (L) (Homo sapiens, UniProt O60885).
T3 construct: endogenous in cells; host or cells: HEK293 (CRL-1573), HeLa (CCL-2)
The test is described as above. To be noted: 4 h, 1 nM-10 μM. The procedure:
as §1, §2, §3

A further test deals with Brd3 (Homo sapiens, UniProt Q15059). The test is described as above. The arrangement: endogenous in cells; host or cells: HEK293 (CRL-1573), HeLa (CCL-2). To be noted: 1 nM-10 μM. The procedure: as §1, §2, §3
The target in another test is Brd2 (Homo sapiens, UniProt P25440). Described as above. The arrangement: endogenous in cells; host or cells: HEK293 (CRL-1573), HeLa (CCL-2). As to conditions: 1 nM-10 μM. The procedure: as §1, §2, §3
Brd2, sequence (P25440 whole entry): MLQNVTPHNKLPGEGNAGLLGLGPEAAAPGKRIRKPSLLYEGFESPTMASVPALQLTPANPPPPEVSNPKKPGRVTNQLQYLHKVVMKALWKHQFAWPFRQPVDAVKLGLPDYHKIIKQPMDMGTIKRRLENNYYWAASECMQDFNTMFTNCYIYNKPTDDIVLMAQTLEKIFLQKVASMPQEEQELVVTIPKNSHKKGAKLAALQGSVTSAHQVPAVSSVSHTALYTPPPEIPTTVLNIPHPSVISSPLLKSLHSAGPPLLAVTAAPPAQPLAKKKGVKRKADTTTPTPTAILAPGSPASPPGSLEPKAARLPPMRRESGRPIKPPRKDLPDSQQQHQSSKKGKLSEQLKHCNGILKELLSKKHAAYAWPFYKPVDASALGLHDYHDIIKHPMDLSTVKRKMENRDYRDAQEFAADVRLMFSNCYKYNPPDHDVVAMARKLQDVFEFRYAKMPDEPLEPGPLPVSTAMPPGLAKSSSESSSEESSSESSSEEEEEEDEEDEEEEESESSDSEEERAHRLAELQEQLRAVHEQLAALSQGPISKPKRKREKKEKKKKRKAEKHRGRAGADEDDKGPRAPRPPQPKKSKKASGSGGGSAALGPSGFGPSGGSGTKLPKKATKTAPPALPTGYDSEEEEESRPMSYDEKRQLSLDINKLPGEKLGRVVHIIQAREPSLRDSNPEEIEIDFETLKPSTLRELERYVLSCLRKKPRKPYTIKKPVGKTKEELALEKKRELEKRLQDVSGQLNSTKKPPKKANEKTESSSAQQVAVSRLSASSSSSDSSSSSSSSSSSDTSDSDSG

Brd3, sequence (Q15059 whole entry): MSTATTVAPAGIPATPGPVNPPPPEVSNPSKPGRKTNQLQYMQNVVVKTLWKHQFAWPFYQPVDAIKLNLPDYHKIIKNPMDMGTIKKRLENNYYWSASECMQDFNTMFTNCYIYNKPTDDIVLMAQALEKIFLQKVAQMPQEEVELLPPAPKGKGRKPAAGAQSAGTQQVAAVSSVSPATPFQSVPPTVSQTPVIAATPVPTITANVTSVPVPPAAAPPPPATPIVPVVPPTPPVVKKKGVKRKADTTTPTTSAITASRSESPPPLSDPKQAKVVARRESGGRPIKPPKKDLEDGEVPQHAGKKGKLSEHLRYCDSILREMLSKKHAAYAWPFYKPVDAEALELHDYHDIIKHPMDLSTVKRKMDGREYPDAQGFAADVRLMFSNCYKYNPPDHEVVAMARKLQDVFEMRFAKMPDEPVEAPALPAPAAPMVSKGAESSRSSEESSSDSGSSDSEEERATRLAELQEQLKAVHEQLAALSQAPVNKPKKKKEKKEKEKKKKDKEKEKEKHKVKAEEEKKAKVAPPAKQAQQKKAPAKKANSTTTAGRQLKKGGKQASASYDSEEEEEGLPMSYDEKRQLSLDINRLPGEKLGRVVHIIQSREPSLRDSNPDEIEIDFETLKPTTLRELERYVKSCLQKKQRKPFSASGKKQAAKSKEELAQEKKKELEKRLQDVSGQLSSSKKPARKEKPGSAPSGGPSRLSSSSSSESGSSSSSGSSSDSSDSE

By Dmax is commonly meant the largest share of the target that was removed. Regarding `Cc1sc2c(c1C)C(c1ccc(Cl)cc1)=N[C@@H](CC(=O)NCCOCCNC(=O)c1cc(SC(C)(C)C)c3ncc(C(=O)NCCc4nccs4)cc3c1)c1nnc(C)n1-2` [Example 11JQ17], the “Brd4 levels (FIG. 3)” value at Brd4 is on record as “minimal depletion”. Further, the “fold change of abundance of 7882 proteins vs DMSO (FIG. 7)” value with HEK293 cells is recorded as “does not show any BET depletion”. The Dmax on Brd4 (S) (HEK293, Brd4 (S)) was not above 25%; at Brd4 (S) (HeLa), not above 25%; at Brd4 (L) (HEK293, Brd4 (L)), not above 25%; on Brd4 (L) (HeLa), not above 25%; on Brd3 (HEK293, Brd3, 4 h), not above 25%; on Brd3 (HeLa, Brd3, 4 h) it was not above 25%. Also, the Dmax is not above 25% on Brd2 (HEK293, Brd2, 4 h) and not above 25% on Brd2 (HeLa, Brd2, 4 h).
